From US20230138327A1, “COMPOSITIONS AND METHODS CONTAINING REDUCED NICOTINAMIDE RIBOSIDE FOR PREVENTION AND TREATMENT OF PANCREATIC DISEASES AND CONDITIONS” (SOCIETE DES PRODUITS NESTLE S.A., priority 2020, published 2023)

Test: Tissue NRH levels in mice after oral gavage (LC-MS)
Assay type: in vivo
Conditions: oral gavage 250 mg/kg (stable isotope-labelled NRH), 2 hours
Protocol: (§1) 8 week-old C57BI/6NTac mice were orally gavaged with either saline (as vehicle), and an stable isotope-labelled NRH (250 mg/kg). After 2 hours, pancreas NRH levels were evaluated. All results are expressed as mean+/−SEM of n=4 mice per group, as areas under the signal by LC-MS analysis, corrected by total protein amount of tissue.
as §1, with “and” for “and an stable isotope-labelled”, “liver, skeletal muscle and kidney” for “pancreas”
Levels of NRH and other NAD-related metabolites in biological samples were obtained by using a cold liquid-liquid extraction using a mixture of methanol:water:chloroform in 5:3:5 (v/v), from which the polar phase was recovered for hydrophilic interaction ultra-high performance liquid chromatography mass spectrometry (UHPLC-MS) analysis. The UHPLC consisted of a binary pump, a cooled autosampler, and a column oven (DIONEX Ultimate 3000 UHPLC+ Focused, Thermo Scientific), connected to a triple quadrupole spectrometer (TSQ Vantage, Thermo Scientific) equipped with a heated electrospray ionisation (H-ESI) source. […]

**Q.** Which “NRH levels in pancreas” value does the source give for `NC(=O)C1=CN([C@@H]2O[C@H](CO)[C@@H](O)[C@H]2O)C=CC1` [NRH] here?
**A.** Its value is “high levels”.
